The star is where a group is joined. FITC = O=C1OC2(c3ccc(O)cc3Oc3cc(O)ccc32)c2ccc(NC(=S)*)cc21
Experiments:
tubulin = tubulin mix with GTP, 30 min at 37° C., 561 nm channel
Description: Hexapeptide ‘NV’-Tubulin Interaction Study on Biotin Micropatterned Surface
Biotin micropatterned surfaces were prepared as previously described method. A flow chamber of around 5 μL was built from one biotin-patterned glass surface and one poly-L-lysine (PLL)-PEG passivated counter glass, separated by two strips of double sticky tape (Tesa). Flow chamber was equilibrated with BRB80 and incubated with β-casein for 10 min followed by washing with 20 μL BRB80 for complete removal of unbound β-casein. 100 nM neutravidin was flowed into the flow chamber and incubated for 10 min followed by removal of excess neutravidin with 20 μL BRB80. […] Then, the flow chamber was filled with 18.5 μM tubulin mix (80:20 unlabeled tubulin and Alexa568 tubulin) in BRB80 supplemented with 3 mM GTP, 10 mM MgCl2, and an oxygen scavenger system (50 mM glucose, 1 mg mL^−1 glucose oxidase, and 0.5 mg mL^−1 catalase) on an ice cold metal block and placed to the TIRF microscope at 37° C. Then flow chamber was imaged using an IX-81 total internal reflection fluorescence (TIRF) microscope (Olympus) with a 60×TIRFM objective (Olympus; Hamburg, Germany) and an Andor iXon3 897 Camera. Control experiment was performed, following previously described method without immobilizing ‘Bio-NV’ on biotin micropatterned surface.

[1] = tested on: neuronally differentiated PC12 cells; experiment: Neuroprotection against anti-NGF toxicity (NGF deprivation), intact nuclear counting; assay type: cell-based, rat; conditions: higher concentrations of NV
Description: On the fifth day they were treated overnight with anti-NGF along with different doses of inhibitor NV (FIG. 4d). […] The cells were observed under the microscope on the day following treatment; survival was assessed by intact nuclear counting assay (FIG. 4d).
Rat pheochromocytoma cells (PC12) cells were cultured as described previously (ESI) in RPMI medium supplemented with 10% heat-inactivated horse serum (HS) and 5% heat-inactivated fetal bovine serum. Neuronal differentiation of these cells was induced by NGF (100 ng/mL) in medium containing 1% horse serum for 6 days before the treatment, as previously described.
The cell viability was checked by the intact nuclear counting method. This assay was performed as described previously. In brief, a detergent containing the buffer that dissolved only the plasma membrane was added to the cells, the nuclear membrane thus remained intact. The intact nuclei were then counted on a haemocytometer under a light microscope. The number of live cells was expressed as percentage of the total cell population.

amyloid beta = conditions: previous study; cited from earlier work
tau = conditions: previous study; cited from earlier work
polymerized microtubules = experiment: FITC-NV binding with microtubule at tubulin polymerization; conditions: FITC-NV during polymerization of alexa-568 labeled tubulin with GTP
Description: Hexapeptide NV Binding with Microtubule at Tubulin Polymerization
Mixture 1: Alexa Fluor 568-labeled tubulin (0.5 μL, 15 mg mL^−1, 65% labelling ratio), Tubulin (2 μL, 20 mg mL^−1), FITC-NV (0.5 μL, 1 mM), GTP (0.2 μL, […]) and BRB80 (46.8 μL; 80 mM PIPES, 1 mM EGTA; 1 mM MgCl2, pH adjusted to 6.8 by using concentrated KOH solution) were mixed on ice. The mixture was incubated for 30 min on 37° C. water bath.
Mixture 2: Taxol (0.4 μL, 1 mM) and BRB80 (180 μL) were mixed.
Final Mixture: After 30 min incubation 50 μL warmed mixture 2 was added into mixture 1. Then this mixture was separated in a table top centrifuge (7 min, 12000 rpm, Eppendorf 5810R bench-top centrifuge, rotor type F-34-6-38). The coloured pellet was resuspended in warm mixture 2. 10 μL resuspended solution of microtubule was placed on glass cover slip and imaged under inverted fluorescence microscope (NIKON Ti-U) in 40× magnification using ANDOR iXON3 camera.

Biotin-NAPVSIPQ-NH2 [Biotin-NV]
binding of tubulin to immobilized Biotin-NV on micropatterns (tubulin): localized binding of tubulin

H-NAVSIQ-NH2 [NV, NH2-NAVSIQ-NH2]
toxicity to control cells [1]: showed toxicity to control cells

NH2-NAPVSIPQ-NH2 [NQ]
inhibition of amyloid beta fibrillation in vitro (amyloid beta): inhibits amyloid beta fibrillation in vitro | inhibition of tau hyper phosphorylation in vivo (tau): inhibit tau hyper phosphorylation in vivo

{FITC}-NAVSIQ-NH2 [FITC-NV]
binding with polymerized microtubules (polymerized microtubules): binds with polymerized microtubules

— patent US10100082B2, “Hexapeptide for neuroprotection against a β toxicity” (Council of Scientific and Industrial Research, priority 2016, dated 2018)
